Columns and labels:
[1] = target: T1, human FGFR3 wild type enzyme (cytoplasmic domain) (Homo sapiens, UniProt P22607); experiment: FGFR3 wild type mobility shift assay (enzymatic assay); assay type: biochemical; conditions: 75 μM ATP, 50 minutes at 30° C., Caliper EZ reader II
T1 construct: human FGFR3 wild type enzyme (cytoplasmic domain, from Carna Biosciences); purchased Carna Biosciences
Description: FGFR3 Wild Type Mobility Shift Assay (Enzymatic Assay)
(§1) In a final reaction volume of 25 μL, 0.04 ng/μL human FGFR3 wild type enzyme (cytoplasmic domain, from Carna Biosciences) was incubated with 75 μM ATP, 1 μM FL-peptide 30 substrate and 250 nL of testing compound (1% DMSO final) in assay buffer (100 mM HEPES pH 7.4, 10 mM MgCl2, 0.003% Brij35, 1 mM DTT). After incubation for 50 minutes at 30° C. the reaction was stopped with 10 μL of 0.5M EDTA pH 8.0, and then 25 μL of reaction mixture was transferred to reading plate and measured on Caliper EZ reader II. The substrate-product conversion rate was used as raw data for normalization and concentration-response curve (10 dose points with 4× serial dilution, starting with 10 μM) was plotted using Prism to calculate IC50 (M), pIC50 (−log IC50) and HillSlope value.

[2] = target: T2, NIH/3T3 cells overexpressing FGFR3 V555M-TACC3 fusion protein (Homo sapiens, UniProt P22607, V555M, cells depend on it); experiment: NIH/3T3 FGFR3 V555M-TACC3 cell proliferation assay; assay type: cell-based; conditions: 72-hr incubation, CellTiter Glo, starting with 10 μM; read-out: NIH/3T3 FGFR3 V555M-TACC3 CTG (IC50)
T2 construct: NIH/3T3 FGFR3 V555M-TACC3 CTG (IC50); other: 72-hr incubation, CellTiter Glo, starting with 10 μM; fused on or other part: Q9Y6A5 (Transforming acidic coiled-coil-containing protein 3)
Description: NIH/3T3 FGFR3 V555M-TACC3 Cell Proliferation Assay
(§2) In day 1, 90 μL of cell suspension (NIH/3T3 cells overexpressing FGFR3 V555M-TACC3 fusion protein) (total 30,000 cells per well in growth medium (DMEM containing 1% Glutamax, 10% FBS and 1% Pen/Strep)) was seeded in a 96-well plate and then incubated overnight at 37° C. and 5% CO2. In day 2, 10 μL of growth medium containing 10-fold stock solution of testing compound was added into cell cultures (9 dose points with 4× serial dilution, starting with 10 μM, 0.1% DMSO final). After 72-hr incubation at 37° C. and 5% CO2, in day 5 a volume of 50 μL CellTiter Glo (CTG) reagent was added into cell-containing 96-well plate and the plate was incubated at room temperature for 10 minutes before RLUs (relative light unit) were measured on a microplate reader with luminescence detection module. The RLU value was normalized to survival % and concentration-response curve was plotted using Prism to calculate IC50 (M), pIC50 (−log IC50) and HillSlope value.

[3] = target: T3, NIH/3T3 cells overexpressing FGFR3 WT-TACC3 fusion protein (Homo sapiens, UniProt P22607); experiment: NIH/3T3 FGFR3 WT-TACC3 cell proliferation assay; assay type: cell-based; conditions: 72-hr incubation, CellTiter Glo, starting with 10 μM; read-out: NIH/3T3 FGFR3 WT-TACC3 CTG (IC50)
T3 construct: NIH/3T3 FGFR3 WT-TACC3 CTG (IC50); other: 72-hr incubation, CellTiter Glo, starting with 10 μM; fused on or other part: Q9Y6A5 (Transforming acidic coiled-coil-containing protein 3)
Description: NIH/3T3 FGFR3 WT-TACC3 Cell Proliferation Assay
as §2, with “WT-TACC3” for “V555M-TACC3”

[4] = target: T4, human FGFR3 V555M enzyme (cytoplasmic domain carrying V555M mutation) (Homo sapiens, UniProt P22607, V555M); experiment: FGFR3 V555M mobility shift assay (enzymatic assay); assay type: biochemical; conditions: 30 μM ATP, 45 minutes at 30° C., Caliper EZ reader II
T4 construct: human FGFR3 V555M enzyme (cytoplasmic domain carrying V555M mutation, from Carna Biosciences); purchased Carna Biosciences
Description: FGFR3 V555M Mobility Shift Assay (Enzymatic Assay)
as §1, with “FGFR3 V555M” for “FGFR3 wild type”, “(cytoplasmic domain carrying V555M mutation,” for “(cytoplasmic domain,”, “with 30” for “with 75”, “for 45” for “for 50”

[5] = tested on: NIH/3T3 cells transfected with the same control vector; experiment: NIH/3T3 mock cell proliferation assay (counter assay, general toxicity); assay type: cell-based; conditions: Mus musculus, NIH3T3, 72 h, 72-hr incubation, CellTiter Glo, starting with 30 μM; counter assay for general toxicity; read-out: NIH/3T3 MOCK CTG (IC50)
Description: NIH/3T3 Mock Cell Proliferation Assay
as §2, with “cells transfected with the same control vector as in the above two proliferation assays)” for “cells overexpressing FGFR3 V555M-TACC3 fusion protein)”, “with 3×” for “with 4×”, “with 30” for “with 10”, “μM, 0.3%” for “μM, 0.1%”

T2 sequence (P22607 whole entry V555M, the tested form may be a part): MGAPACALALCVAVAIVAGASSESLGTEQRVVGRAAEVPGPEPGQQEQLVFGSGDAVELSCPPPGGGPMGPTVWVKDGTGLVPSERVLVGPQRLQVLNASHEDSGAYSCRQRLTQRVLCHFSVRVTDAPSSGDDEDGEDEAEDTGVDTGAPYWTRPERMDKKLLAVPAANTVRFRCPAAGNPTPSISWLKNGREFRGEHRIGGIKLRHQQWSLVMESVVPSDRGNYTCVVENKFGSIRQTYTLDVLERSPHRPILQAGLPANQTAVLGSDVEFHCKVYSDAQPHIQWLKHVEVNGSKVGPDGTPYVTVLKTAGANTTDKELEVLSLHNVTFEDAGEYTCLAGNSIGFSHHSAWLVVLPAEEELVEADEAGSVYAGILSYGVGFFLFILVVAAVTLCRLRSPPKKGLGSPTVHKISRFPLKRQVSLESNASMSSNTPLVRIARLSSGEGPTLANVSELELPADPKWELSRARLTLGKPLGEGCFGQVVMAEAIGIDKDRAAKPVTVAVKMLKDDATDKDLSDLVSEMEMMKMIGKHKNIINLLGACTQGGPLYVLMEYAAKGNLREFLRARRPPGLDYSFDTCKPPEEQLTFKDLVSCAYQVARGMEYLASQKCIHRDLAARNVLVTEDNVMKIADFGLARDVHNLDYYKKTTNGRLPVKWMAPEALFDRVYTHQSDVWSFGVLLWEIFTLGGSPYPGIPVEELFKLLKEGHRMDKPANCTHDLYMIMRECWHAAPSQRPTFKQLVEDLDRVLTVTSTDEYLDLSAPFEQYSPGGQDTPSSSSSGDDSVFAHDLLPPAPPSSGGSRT
T3 sequence (P22607 whole entry, change not shown, the tested form may be a part): as the sequence (P22607 whole entry V555M, the tested form may be a part) above, with M555V counted along it
T1 sequence (P22607 397-806 limits assumed): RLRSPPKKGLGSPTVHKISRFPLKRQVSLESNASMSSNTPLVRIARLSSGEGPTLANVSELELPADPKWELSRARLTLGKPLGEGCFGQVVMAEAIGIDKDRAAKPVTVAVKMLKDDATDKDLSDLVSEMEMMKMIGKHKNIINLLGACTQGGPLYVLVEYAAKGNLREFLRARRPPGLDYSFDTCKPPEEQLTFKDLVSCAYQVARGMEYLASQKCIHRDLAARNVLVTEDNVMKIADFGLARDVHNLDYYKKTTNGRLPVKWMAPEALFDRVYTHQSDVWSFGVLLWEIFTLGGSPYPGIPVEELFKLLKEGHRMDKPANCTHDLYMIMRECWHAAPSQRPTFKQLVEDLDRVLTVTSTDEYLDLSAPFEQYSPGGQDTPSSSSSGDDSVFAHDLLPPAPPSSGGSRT
T4 sequence (P22607 397-806 V555M limits assumed): as the sequence (P22607 397-806 limits assumed) above, with V159M counted along it

IC50 [1] [nM]	GI50 [2] [nM]	GI50 [3] [nM]	IC50 [4] [nM]	Compound	IC50 [5] [nM]
0.545	28.9	4.19	0.382	CC(Nc1c(-c2nc3cc(C(F)(F)F)c(N4CCC(C(=O)O)CC4)cc3[nH]2)c(=O)[nH]c2ccccc12)c1ncccn1 (single isomer, unassigned) [Compound 58, (S*)-1-(2-(2-oxo-4-((1-(pyrimidin-2-yl)ethyl)amino)-1,2-dihydroquinolin-3-yl)-5-(trifluoromethyl)-1H-benzo[d]imidazol-6-yl)piperidine-4-carboxylic acid]	8240
0.788	61.7	31.9	0.359	COC(=O)C1CN(c2ccc3nc(-c4c(N[C@@H](C)c5ccccn5)c5ccccc5[nH]c4=O)[nH]c3c2)CCO1 (mixture of isomers) [Compound 59, (Rac)-methyl 4-(2-(2-oxo-4-(((S)-1-(pyridin-2-yl)ethyl)amino)-1,2-dihydroquinolin-3-yl)-1H-benzo[d]imidazol-6-yl)morpholine-2-carboxylate]	7290
0.367	66.5	46.1	0.358	C[C@H](Nc1c(-c2nc3cc(C(F)(F)F)c(N(C)C4CCN(C)CC4)cc3[nH]2)c(=O)[nH]c2ccccc12)c1ccccn1 [Compound 19, (S)-3-(6-(methyl(1-methylpiperidin-4-yl)amino)-5-(trifluoromethyl)-1H-benzo[d]-imidazol-2-yl)-4-((1-(pyridin-2-yl)ethyl)amino)quinolin-2(1H)-one]	2450
0.47	8.64	9.9	0.186	CC(Nc1c(-c2nc3ccc(-c4cnn(C)c4)cc3[nH]2)c(=O)[nH]c2ccccc12)c1ncccn1 (single isomer, unassigned) [Compound 53a, (S*)-3-(6-(1-methyl-1H-pyrazol-4-yl)-1H-benzo[d]imidazol-2-yl)-4-((1-(pyrimidin-2-yl)ethyl)amino)quinolin-2(1H)-one]	1690
1.31	30.2	30.1	0.237	CC(Nc1c(-c2nc3ccc(N4CCOCC4)cc3[nH]2)c(=O)[nH]c2ccccc12)c1cocn1 (single isomer, unassigned) [Compound 51a, (S*)-3-(6-morpholino-1H-benzo[d]imidazol-2-yl)-4-((1-(oxazol-4-yl)ethyl)amino)-quinolin-2(1H)-one]	1180
0.445	6.48	13.3	0.421	CC(Nc1c(-c2nc3ccc(N4C[C@@H](C)O[C@@H](C)C4)cc3[nH]2)c(=O)[nH]c2ccccc12)c1ncccn1 (single isomer, unassigned) [Compound 22a, 3-(6-((2S,6R)-2,6-dimethylmorpholino)-1H-benzo[d]imidazol-2-yl)-4-(((S*)-1-(pyrimidin-2-yl)ethyl)amino)quinolin-2(1H)-one]	6390
1.17	12.2	25.3	0.483	CC(Nc1c(-c2nc3cc(C(F)(F)F)c(N4CCOCC4)cc3[nH]2)c(=O)[nH]c2ccccc12)c1ncccn1 (single isomer, unassigned) [Compound 45, (S*)-3-(6-morpholino-5-(trifluoromethyl)-1H-benzo[d]imidazol-2-yl)-4-((1-(pyrimidin-2-yl)ethyl)amino)quinolin-2(1H)-one]	12700
19.9	547	454	5.41	COc1ccnc(C(C)Nc2c(-c3nc4ccc(N5CCOCC5)cc4[nH]3)c(=O)[nH]c3ccccc23)c1 (single isomer, unassigned) [Compound 48a, (S*)-4-((1-(4-methoxypyridin-2-yl)ethyl)amino)-3-(6-morpholino-1H-benzo[d]imidazol-2-yl)quinolin-2(1H)-one]	5670
4.89	114	58.7	0.997	C[C@H](Nc1c(-c2nc3ccc(N4CCOCC4)cc3[nH]2)c(=O)[nH]c2ccc(F)cc12)c1ccccn1 [Compound 17, (S)-6-fluoro-3-(6-morpholino-1H-benzo[d]imidazol-2-yl)-4-((1-(pyridin-2-yl)ethyl)-amino)quinolin-2(1H)-one]	661
0.851	24.9	12.4	0.351	C[C@H](Nc1c(-c2nc3ccc(N4CCN(C)C(=O)C4)cc3[nH]2)c(=O)[nH]c2ccccc12)c1ccccn1 [Compound 15, (S)-3-(6-(4-methyl-3-oxopiperazin-1-yl)-1H-benzo[d]imidazol-2-yl)-4-((1-(pyridin-2-yl)ethyl)amino)quinolin-2(1H)-one]	1190
11.1	197	127	2.86	CC(Nc1c(-c2nc3ccc(N4CCOCC4)cc3[nH]2)c(=O)[nH]c2ccccc12)c1cnccn1 (single isomer, unassigned) [Compound 35b, (S*)-3-(6-morpholino-1H-benzo[d]imidazol-2-yl)-4-((1-(pyrazin-2-yl)ethyl)amino)-quinolin-2(1H)-one]	1680

— patent publication US11384075B2, “Quinolinone compounds” (Janssen Pharmaceutica NV, priority 2017, dated 2022)
